The values that follow come from PubChem BioAssay AID200 (DTP/NCI, 2004).

Each structure is given as a SMILES string. Values joined by “and” are separate entries in the source; they are usually repeats but may differ in a detail not shown here. Equal entries are not always repeated. Toxic doses and inconclusive results are not listed.

The test system of this test is B6C3F1 mice, B16 melanoma ip, median survival T/C. Put plainly: NCI In Vivo Anticancer Drug Screen. Data for tumor model B16 Melanoma (intraperitoneal) in B6C3F1 mice. Particulars: endpoint: median survival time, higher = longer survival. The method in brief:
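Mice bearing transplanted tumor were dosed with compound or vehicle, and survival was recorded. Activity is expressed as the treated-group measurement (T) divided by the vehicle control measurement (C).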

The mark [1] stands for this setting: dose: 6.25 mg/kg/injection, schedule: Q01DX009 (ip), vehicle: saline with Tween-80.
[2] abbreviates: dose: 12.5 mg/kg/injection, schedule: Q01DX009 (ip), vehicle: saline with Tween-80.
Where [3] appears, read: dose: 25.0 mg/kg/injection, schedule: Q01DX009 (ip), vehicle: saline with Tween-80.
Setting [4] is: dose: 50.0 mg/kg/injection, schedule: Q01DX009 (ip), vehicle: saline with Tween-80.
Setting [5] is: dose: 100.0 mg/kg/injection, schedule: Q01DX009 (ip), vehicle: saline with Tween-80.
Where [6] appears, read: dose: 200.0 mg/kg/injection, schedule: Q01DX009 (ip), vehicle: saline with Tween-80.
Setting [7] is: dose: 25.0 mg/kg/injection, schedule: Q01DX009 (ip), vehicle: suspension in saline.
Where [8] appears, read: dose: 25.0 mg/kg/injection, schedule: Q01DX009 (ip), vehicle: saline.
The mark [9] stands for this setting: dose: 50.0 mg/kg/injection, schedule: Q01DX009 (ip), vehicle: Klucel (hydroxypropylcellulose) (HPC).
Where [10] appears, read: dose: 100.0 mg/kg/injection, schedule: Q01DX009 (ip), vehicle: Klucel (hydroxypropylcellulose) (HPC).
Where [11] appears, read: dose: 200.0 mg/kg/injection, schedule: Q01DX009 (ip), vehicle: Klucel (hydroxypropylcellulose) (HPC).

For the molecule `C[Si](C)(C)O/C=C1\CCCCC1=O`, the T/C is, setting by setting: under setting [1], 105 % of control; under setting [2], 104 % of control; under setting [3], 113 % of control; under setting [4], 105 % of control; under setting [5], 110 % of control; under setting [6], 97 % of control.

`O=C(O)C(CSC(c1ccccc1)(c1ccccc1)c1ccccc1)N=Cc1cccs1` (configuration not stated): the T/C reads like this: (dose: 12.5 mg/kg/injection, schedule: Q01DX009 (ip), vehicle: suspension in saline) 112 % of control; under setting [7], 118 % of control.

As for `N#C[C@H](OC1OC(COC2OC(CO)C(O)C(O)C2O)C(O)C(O)C1O)c1ccccc1` (some centres not stated), the T/C is 96 % of control (dose: 12.5 mg/kg/injection, schedule: Q01DX009 (oral), vehicle: saline); 98 % of control under setting [7]; 101 % of control (dose: 25.0 mg/kg/injection, schedule: Q01DX009 (oral), vehicle: saline); 98 % of control (dose: 50.0 mg/kg/injection, schedule: Q01DX009 (ip), vehicle: suspension in saline); 98 % of control (2×) and 102 % of control (dose: 50.0 mg/kg/injection, schedule: Q01DX009 (oral), vehicle: saline); 108 % of control (dose: 100.0 mg/kg/injection, schedule: Q01DX009 (ip), vehicle: suspension in saline). Also, the T/C was 121 % of control (dose: 200.0 mg/kg/injection, schedule: Q01DX009 (ip), vehicle: suspension in saline); 103 % of control (dose: 400.0 mg/kg/injection, schedule: Q01DX009 (ip), vehicle: suspension in saline); 111 % of control (dose: 800.0 mg/kg/injection, schedule: Q01DX009 (ip), vehicle: suspension in saline).

With `CN1CCN(c2ccc3nc(-c4ccc5nc(-c6ccc(O)cc6)[nH]c5c4)[nH]c3c2)CC1`, the T/C (dose: 6.25 mg/kg/injection, schedule: Q01DX009 (ip), vehicle: saline) was 95 % of control; the T/C (dose: 12.5 mg/kg/injection, schedule: Q01DX009 (ip), vehicle: saline) is 99 % of control; the T/C under setting [8] was 89 % of control.

Take `C=C1C(=O)OC2/C=C(\CO)C(OC(C)=O)CC(O)/C(C)=C/C(OC(=O)C(C)CC)C12` (configuration not stated): the T/C is 96 % of control (dose: 0.2 mg/kg/injection, schedule: Q01DX009 (ip), vehicle: Klucel (hydroxypropylcellulose) (HPC)); 103 % of control (dose: 0.39 mg/kg/injection, schedule: Q01DX009 (ip), vehicle: Klucel (hydroxypropylcellulose) (HPC)); 89 % of control and 103 % of control (dose: 0.78 mg/kg/injection, schedule: Q01DX009 (ip), vehicle: Klucel (hydroxypropylcellulose) (HPC)); 110 % of control and 100 % of control (dose: 1.56 mg/kg/injection, schedule: Q01DX009 (ip), vehicle: Klucel (hydroxypropylcellulose) (HPC)).

As for `NC(=O)c1ccc[n+](Cc2c(Cl)cccc2Cl)c1`, the T/C by setting is: (dose: 1.5 mg/kg/injection, schedule: Q01DX009 (ip), vehicle: saline) 98 % of control; (dose: 3.0 mg/kg/injection, schedule: Q01DX009 (ip), vehicle: saline) 98 % of control; (dose: 6.0 mg/kg/injection, schedule: Q01DX009 (ip), vehicle: saline) 103 % of control; (dose: 12.0 mg/kg/injection, schedule: Q01DX009 (ip), vehicle: saline) 98 % of control.

Turning to `O=C(CCBr)NCCNC(=O)CCBr`, the T/C (dose: 43.7 mg/kg/injection, schedule: Q01DX009 (ip), vehicle: saline with Tween-80) was 96 % of control; the T/C (dose: 87.5 mg/kg/injection, schedule: Q01DX009 (ip), vehicle: saline with Tween-80) is 100 % of control; the T/C (dose: 175.0 mg/kg/injection, schedule: Q01DX009 (ip), vehicle: saline with Tween-80) is 98 % of control.

For the molecule `C=CCCC(=O)CCCC(=O)O[C@@H]1[C@@H]2[C@H](CC1(C)C)[C@H](O)[C@@]13O[C@@H]1[C@H](O)[C@@]1(CO1)[C@@]23C`, the T/C by setting is: (dose: 3.12 micrograms/kg/injection, schedule: Q01DX009 (ip), vehicle: saline) 97 % of control; (dose: 6.25 micrograms/kg/injection, schedule: Q01DX009 (ip), vehicle: saline) 91 % of control; (dose: 12.5 micrograms/kg/injection, schedule: Q01DX009 (ip), vehicle: saline) 103 % of control; (dose: 25.0 micrograms/kg/injection, schedule: Q01DX009 (ip), vehicle: Klucel (hydroxypropylcellulose) (HPC)) 98 % of control; (dose: 25.0 micrograms/kg/injection, schedule: Q01DX009 (ip), vehicle: saline) 93 % of control; (dose: 50.0 micrograms/kg/injection, schedule: Q01DX009 (ip), vehicle: Klucel (hydroxypropylcellulose) (HPC)) 91 % of control. For the same molecule, the T/C is, setting by setting: (dose: 50.0 micrograms/kg/injection, schedule: Q01DX009 (ip), vehicle: saline) 97 % of control; (dose: 100.0 micrograms/kg/injection, schedule: Q01DX009 (ip), vehicle: saline) 98 % of control; (dose: 200.0 micrograms/kg/injection, schedule: Q01DX009 (ip), vehicle: Klucel (hydroxypropylcellulose) (HPC)) 98 % of control; (dose: 400.0 micrograms/kg/injection, schedule: Q01DX009 (ip), vehicle: Klucel (hydroxypropylcellulose) (HPC)) 96 % of control.

In the case of `CC[n+]1ccc2c(C)c3[nH]c4ccc(O)cc4c3c(C)c2c1`, the T/C is, setting by setting: (dose: 0.39 mg/kg/injection, schedule: Q01DX009 (ip), vehicle: saline) 110 % of control and 114 % of control; (dose: 0.78 mg/kg/injection, schedule: Q01DX009 (ip), vehicle: saline) 122 % of control; (dose: 1.56 mg/kg/injection, schedule: Q01DX009 (ip), vehicle: saline) 123 % of control.

With `Clc1ccccc1C(Nc1cnccn1)Nc1cnccn1`, the T/C runs as follows: under setting [3], 95 % of control and 101 % of control; under setting [4], 98 % of control and 107 % of control; under setting [5], 118 % of control and 108 % of control; under setting [6], 116 % of control.

Regarding `O=C(O)CNC(=O)c1ccccc1`, the T/C (dose: 40.0 mg/kg/injection, schedule: Q01DX009 (ip), vehicle: saline with Tween-80) is 96 % of control and the T/C (dose: 80.0 mg/kg/injection, schedule: Q01DX009 (ip), vehicle: saline with Tween-80) was 95 % of control.

As to `Nc1ccn(C2OC(CO)C(O)C2O)c(=O)n1` (configuration not stated), the T/C reads like this: under setting [8], 120 % of control; (dose: 2400.0 mg/kg/injection, schedule: Q01DX009 (ip), vehicle: saline with Tween-80) 110 % of control.

As for `C/C(=N/NC(N)=S)c1ccc2ccccc2c1`, the T/C reads like this: under setting [1], 106 % of control; under setting [2], 108 % of control; under setting [3], 108 % of control.

For the molecule `C=C[Si]12OCCN(CCO1)CCO2`, the T/C is, setting by setting: (dose: 12.5 mg/kg/injection, schedule: Q01DX009 (ip), vehicle: Klucel (hydroxypropylcellulose) (HPC)) 112 % of control and 96 % of control; (dose: 25.0 mg/kg/injection, schedule: Q01DX009 (ip), vehicle: Klucel (hydroxypropylcellulose) (HPC)) 95 % of control and 99 % of control; under setting [9], 101 % of control; under setting [10], 111 % of control and 95 % of control; under setting [11], 93 % of control and 104 % of control.

For `CCCCCCCC1C(=O)OC2CC3C(C)=CC(=O)C(O)C3(C)C3C4(O)OCC23C1C(C)C4O` (configuration not stated), the T/C by setting is: (dose: 1.25 mg/kg/injection, schedule: Q01DX009 (ip), vehicle: Klucel (hydroxypropylcellulose) (HPC)) 156 % of control; (dose: 2.5 mg/kg/injection, schedule: Q01DX009 (ip), vehicle: Klucel (hydroxypropylcellulose) (HPC)) 110 % of control and 91 % of control; (dose: 5.0 mg/kg/injection, schedule: Q01DX009 (ip), vehicle: Klucel (hydroxypropylcellulose) (HPC)) 118 % of control and 97 % of control; (dose: 10.0 mg/kg/injection, schedule: Q01DX009 (ip), vehicle: Klucel (hydroxypropylcellulose) (HPC)) 114 % of control and 250 % of control; (dose: 20.0 mg/kg/injection, schedule: Q01DX009 (ip), vehicle: Klucel (hydroxypropylcellulose) (HPC)) 162 % of control.

On to `O=C(Cl)c1ccccc1S(=O)(=O)N(CCOc1ccccc1)c1ccccc1`, for which the T/C is 90 % of control under setting [9], 94 % of control under setting [10] and 90 % of control under setting [11].

Take `CCCCCCNc1nc(NCCCCCC)c2[nH]c(NCCCCCC)nc2n1`: the T/C was 107 % of control under setting [3], 101 % of control under setting [4], 96 % of control under setting [5] and 91 % of control under setting [6].
